# Patent US5140025A, “Thienotricylene for the treatment of bronchial diseases” (BYK Gulden Lomberg Chemische Fabrik GmbH, priority 1987, dated 1992)
# Read-outs that look alike come from different tables or passages of the source.
# Tests used:
# [1] = molecular target: T1, M2 receptor (cardiac) (Rattus norvegicus, UniProt P10980); test: Receptor affinity, electrically stimulated left atrium of the rat; conditions: agonist carbachol, Schild slope normalised to 1.00, read-out: pA2 ± SEM, M2 receptor (cardiac) (converted)
# T1 construct: isolated, left atria of rats (male 250-350 g); from tissue; host or cells: rat left atrium (isolated, male rats 250-350 g)
# T1 sequence (P10980 1-466): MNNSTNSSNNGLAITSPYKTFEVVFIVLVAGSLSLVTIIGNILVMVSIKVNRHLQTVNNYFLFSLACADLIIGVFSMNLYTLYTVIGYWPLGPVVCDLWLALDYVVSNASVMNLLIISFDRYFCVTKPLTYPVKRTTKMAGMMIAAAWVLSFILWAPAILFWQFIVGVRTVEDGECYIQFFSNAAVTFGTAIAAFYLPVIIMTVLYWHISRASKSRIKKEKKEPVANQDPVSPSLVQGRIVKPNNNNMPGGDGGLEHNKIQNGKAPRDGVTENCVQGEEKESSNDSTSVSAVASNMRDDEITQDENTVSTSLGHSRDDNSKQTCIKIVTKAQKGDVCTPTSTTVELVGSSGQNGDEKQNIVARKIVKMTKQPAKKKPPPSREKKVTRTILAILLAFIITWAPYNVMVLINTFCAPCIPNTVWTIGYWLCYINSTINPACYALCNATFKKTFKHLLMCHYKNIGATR
# Text: The affinity of (±)-4,9-dihydro-3-methyl-4-[(4-methyl-1-piperazinyl)-acetyl]-10H-thieno[3,4-b][1,5]benzodiazepin-10-one (telenzepine, compound 2 in Table 7) and its conformers [(+)-enantiomer=compound 1, (-)-enantiomer=compound 3] to muscarinic M1 (ganglionic type) and M2 (cardiac type) receptors was investigated by the following methods:
# Electrically Stimulated Left Atrium of the Rat (Eltze et al., 1985, Europ. J. Pharmacol. 112, 211-224).
# Isometric contractions (HSE force transducer, K-30; Watanabe Linear Corder Mark 5) of isolated, left atria of rats (male 250-350 g) were recorded in an organ bath (10 ml, Tyrode nutrient solution, 31° C., gassing with carbogen, initial tension of the organs 0.25 g) under electrical stimulation (HSE stimulator; hook-shaped Pt electrodes at the base of the bath and immersed, annular Pt electrodes 1 cm below the water surface of the bath; 7 V, 3 ms, 2 Hz). After an equilibration time of 30 minutes, cumulative dose/response curves of carbachol (10^-8 -10^-6 M, in the presence of the antagonist also up to 10^-5 or 10^-4 M) were recorded simultaneously on 4 organs in each case by the technique described by van Rossum (1963). The substance to be tested was added to the organ baths 20 minutes before application of the carbachol. The pauses between the individual dose/response curves were 30-45 minutes.
# The Tyrode nutrient solution used had the following composition (mM): NaCl 130, KCl 2.0, CaCl2 ·2H2 O 1.8, MgCl2 ·6H2 O 0.98, NaHCO3 12.0, NaH2 PO4 0.42 and glucose monohydrate 5.6. pA2 values (-log of the molar dissociation constants of the competitive antagonist-receptor complex) were determined by linear regression using the Schild plot: pA2 =-log [B/(x-1)], (Arunlakshana and Schild, 1959).
# Table 7 below gives pA2 values of the substances, for which the slope of the regression lines for theoretically competitive antagonism have been normalised to 1.00 (Tallarida et al., 1979).
# [2] = tested on: acetylcholine-induced changes in lung function parameters; test: Acetylcholine-induced changes in lung function parameters in anaesthetised guinea pigs, intratracheal administration (whole-body plethysmography); format: in vivo, guinea pig (Pirbright White); conditions: for Bronchospasmolytic activity, percentage increase of compliance vs control / Bronchospasmolytic activity, percentage increase of conductance vs control: x±SEM, N=10; for ED50: Cavia porcellus
# Text: Effect of Intratracheally (i.t.) Administered (±)-Telenzepine on Acetylcholine-Induced Changes in Lung Function Parameters in Anaesthetised Guinea Pigs
# Small-anmimal whole-body plethysmography in anaesthetised guinea pigs (method according to U. Heinreich and A. Wilhelm, in bga-Schriften 5/84, pp 255-266, MMW-Verlag, 1984).
# Pirbright White, Interfauna (Tuttlingen). 290-350 g, male.
# Ethylurethane 1.2 g/kg i.p. as 12.5% aqueous solution.
# Plethysmographic measurement of maximum flow velocities of the respiratory air and tidal volume using tracheal catheter inserted through the natural passages; and measurement of intrapleural pressure using oesophageal catheter inserted through the natural passages.
# 0.001, 0.01, 0.1 and 1 μmol/kg (±)-telenzepine i.t., dissolved in 0.1 ml/kg 0.9% NaCl+0.1% Tween 80, acetylcholine as spasmogen administered by inhalation of ultrasonically nebulized 0.18% acetylcholine/0.9% NaCl solution.
# -10 min control spasm, 0 min administration of substance, +5 and +30 min test spasms.
# Computation of conductance (=capacity of airways to conduct air, equivalent to reciprocal of airway resistance) and of compliance (=distensibility of lung) from the recorded data, according to the method of Amdur and Mead (Amer. J. Physiol., 192, 364-368, 1958), before and at peak spasm, and determination of differences; calculation of percentage inhibition of the spasm after administration of the substance, in comparison with the control spasm; calculation of the dose/response curve and ED50 values of this bronchospasmolytic activity.
# [3] = molecular target: M1 receptor (ganglionic); test: Receptor affinity, electrically stimulated rabbit vas deferens in organ bath; conditions: vas deferens of the rabbit, agonist McN-A-343, Schild slope normalised to 1.00
# Protocol: Isometric contractions (HSE force transducer, K-30; tilt and zones, BD-9 chart recorder) of isolated seminal duct sections of rabbits (male, white New Zealand rabbits, 2.5-3.5 kg) were recorded in an organ bath (10 ml, 31° C., gassing with carbogen, initial tension of the organs 0.75 g) under electrical stimultion (HSE stimulator; hook-shaped Pt electrode 1 cm below the water surface of the bath; 30 V, 0.5 ms, 0.05 Hz). After an equilibration time of 30 minutes, cumulative dose/response curves of McN-A-343 (10^-7 -2×10^-6 M) were recorded simultaneously on 8 organ sections in each case (control curves), using the technique described by van Rossum (1963). After 3 control curves, a fixed concentration of the agonist (for example 5×10^-7, 10^-6, 3×10^-6, 10^-5 or 3×10^-5 M) per organ section was applied and, after stabilisation of the effect, increasing concentrations of the agonist to be tested were added. The nutrient solution used had the following composition (mM): NaCl 118, KCl 4.7, CaCl2 ·2H2 O 2.5, MgSO4 ·7H2 O 0.6, KH2 PO 4 1.2, NaHCO3 25.0 and glucose 11.1. In order to block α2 -adrenoreceptors, the nutrient solution additionally contained 10^-6 M yohimbine.
structure (smiles),measurement,setting,value
"Cc1scc2c1N(C(=O)CN1CCN(C)CC1)c1ccccc1NC2=O (racemic) [(±)-telenzepine, 4,9-dihydro-3-methyl-4-[(4-methyl-1-piperazinyl)-acetyl]-10H-thieno[3,4-b][1,5]benzodiazepin-10-one]",Kb,[1],47.9 nM
same,"Bronchospasmolytic activity, percentage increase of compliance vs control","[2]; 5 min, 0.001 μmol/kg i.t.",5 ± 1%
same,"Bronchospasmolytic activity, percentage increase of conductance vs control","[2]; 5 min, 0.001 μmol/kg i.t.",12 ± 3%
same,"Bronchospasmolytic activity, percentage increase of compliance vs control","[2]; 5 min, 0.01 μmol/kg i.t.",50 ± 9%
same,"Bronchospasmolytic activity, percentage increase of conductance vs control","[2]; 5 min, 0.01 μmol/kg i.t.",62 ± 10%
same,"Bronchospasmolytic activity, percentage increase of compliance vs control","[2]; 5 min, 0.1 μmol/kg i.t.",34 ± 10%
same,"Bronchospasmolytic activity, percentage increase of conductance vs control","[2]; 5 min, 0.1 μmol/kg i.t.",46 ± 10%
same,"Bronchospasmolytic activity, percentage increase of compliance vs control","[2]; 5 min, 1 μmol/kg i.t.",57 ± 9%
same,"Bronchospasmolytic activity, percentage increase of conductance vs control","[2]; 5 min, 1 μmol/kg i.t.",65 ± 9%
same,"Bronchospasmolytic activity, percentage increase of compliance vs control","[2]; 30 min, 0.001 μmol/kg i.t.",13 ± 3%
same,"Bronchospasmolytic activity, percentage increase of conductance vs control","[2]; 30 min, 0.001 μmol/kg i.t.",20 ± 5%
same,"Bronchospasmolytic activity, percentage increase of compliance vs control","[2]; 30 min, 0.01 μmol/kg i.t.",49 ± 9%
same,"Bronchospasmolytic activity, percentage increase of conductance vs control","[2]; 30 min, 0.01 μmol/kg i.t.",51 ± 9%
same,"Bronchospasmolytic activity, percentage increase of compliance vs control","[2]; 30 min, 0.1 μmol/kg i.t.",51 ± 9%
same,"Bronchospasmolytic activity, percentage increase of conductance vs control","[2]; 30 min, 0.1 μmol/kg i.t.",54 ± 7%
same,"Bronchospasmolytic activity, percentage increase of compliance vs control","[2]; 30 min, 1 μmol/kg i.t.",89 ± 4%
same,"Bronchospasmolytic activity, percentage increase of conductance vs control","[2]; 30 min, 1 μmol/kg i.t.",84 ± 2%
same,ED50,"[2]; 5 min, 5 min p.a., read-out: ED50 of bronchospasmolytic activity, compliance",0.3 µmol/kg
same,ED50,"[2]; 5 min, 5 min p.a., read-out: ED50 of bronchospasmolytic activity, conductance",0.05 µmol/kg
same,ED50,"[2]; 0.5 h, 30 min p.a., read-out: ED50 of bronchospasmolytic activity, compliance",0.03 µmol/kg
same,ED50,"[2]; 0.5 h, 30 min p.a., read-out: ED50 of bronchospasmolytic activity, conductance",0.03 µmol/kg
same,dose range of time- and dose-dependent inhibition of acetylcholine-induced reduction of conductance and compliance,[2]; i.t.,0.001-1 μmol/kg i.t.
same,efficacy at 30 min compared with 5 min after administration,[2]; i.t.,more pronounced at 30 min than at 5 min
same,"pA2 ± SEM, M1 receptor (ganglionic)",[3],8.86 ± 0.06
